We go through four compounds from paper PMC7698926 (International Journal of Molecular Sciences, 2020).

Converted amounts (≈) assume the structure as drawn. “And” between values parts separate entries of the source, which are not always exact repeats. Equal entries are not always repeated. Where two headings read alike, the source gives them in different places. Where a SMILES comes first, the peptide text is derived from it.

Series [1] concerns C. fangii. It counts as cell-based, Clavibacter fangii.
The subject of series [2] is C. michiganensis. It counts as cell-based, Clavibacter michiganensis subsp.
The test system of series [3] is X. oryzae pv. oryzae. It counts as cell-based, Xanthomonas oryzae pv. oryzae. As to conditions: X. oryzae pv. oryzae (G-); extracellular peptide from B. subtilis strain; mean ± SD, three independent experiments; control SCK6-e 0.66 ±0.033.
Series [4] deals with R. solanacearum. It counts as cell-based, Ralstonia solanacearum. As to conditions: R. solanacearum (G-); extracellular peptide from B. subtilis strain; mean ± SD, three independent experiments; control SCK6-e 0.75 ±0.050.
Series [5] relates to X. oryzae pv. oryzae. It counts as cell-based, Xanthomonas oryzae pv. oryzae. As to conditions: peptide at MIC, 2 h, 28 °C; X. oryzae pv. oryzae exponential phase; flow cytometry; control 0.07%. (A flow cytometer gives signals particle by particle.)
In series [6] the test system is X. oryzae pv. oryzae. It counts as cell-based, Xanthomonas oryzae pv. oryzae. The following applies: peptide at MIC; 28 °C, OD600 at 2–24 h; compared with polymyxin B.
Series [7] deals with C. fangii, X. oryzae pv. oryzae, C. michiganensis, and R. solanacearum. It counts as physicochemical. As to conditions: heated 30 min at 4 °C, 50 °C, 80 °C and 100 °C; agar diffusion on four indicator bacteria; compared to control SCK6-e.
Series [8] relates to C. fangii. Kind of series: Salt sensitivity assay. It counts as cell-based, Clavibacter fangii. As to conditions: peptide 1 × MIC, OD600.
In series [9] the test system is X. oryzae pv. oryzae. It counts as cell-based, Xanthomonas oryzae pv. oryzae. As to conditions: peptide 1 × MIC, OD600.
In the next series the test system is Magnaporthe oryzae. It counts as cell-based. The following applies: peptide 260 μg/mL in PDA, 28 °C, 96 h; buffer control.
Series [10] concerns X. oryzae pv. oryzae. Also on record: species or system rice. As to conditions: control SCK6-e.
Series [11] deals with X. oryzae pv. oryzae. It counts as cell-based, Xanthomonas oryzae pv. oryzae. The following applies: peptide at MIC, 10 μM DCFH-DA, 28 °C, after 30 min, upward trend at 120 min; compared to untreated strain.
Series [12] relates to X. oryzae pv. oryzae. It counts as cell-based, Xanthomonas oryzae pv. oryzae. As to conditions: peptide at MIC, 2 h, 28 °C; PBS control.
For series [13], the system named is C. fangii.
Series [14] has as its system C. michiganensis.
Series [15] relates to X. oryzae pv. oryzae. As to conditions: X. oryzae pv. oryzae (Gram-negative); purified peptide; LB medium, 28 °C, 24 h.
In series [16] the test system is R. solanacearum. As to conditions: R. solanacearum (Gram-negative); purified peptide; LB medium, 28 °C, 24 h.
In the next series the test system is X. oryzae pv. oryzicola. The following applies: X. oryzae pv. oryzicola (Gram-negative); purified peptide; LB medium, 28 °C, 24 h.
For series [17], the system named is Gram-negative and Gram-positive bacteria. The following applies: range over C. fangii, R. solanacearum, C. michiganensis, X. oryzae pv oryzae, X. oryzae pv. oryzicola, B. subtilis (168).

Usually MIC stands for the smallest concentration in the dilution series that meets the test's criterion for growth inhibition. A low value points to greater potency. With `CC[C@H](C)[C@H](NC(=O)[C@H](CO)NC(=O)[C@H](CCCCN)NC(=O)[C@H](CCCNC(=N)N)NC(=O)[C@@H](NC(=O)[C@H](CCC(=O)O)NC(=O)[C@H](Cc1ccc(O)cc1)NC(=O)[C@H](CS)NC(=O)[C@H](Cc1c[nH]cn1)NC(=O)[C@@H](NC(=O)[C@H](Cc1c[nH]cn1)NC(=O)[C@H](CCCCN)NC(=O)[C@H](CCC(=O)O)NC(=O)[C@H](CO)NC(=O)[C@H](CO)NC(=O)[C@@H](NC(=O)[C@H](CS)NC(=O)[C@H](CC(N)=O)NC(=O)[C@H](Cc1ccc(O)cc1)NC(=O)[C@@H](NC(=O)[C@H](Cc1c[nH]cn1)NC(=O)[C@@H](NC(=O)[C@H](Cc1ccc(O)cc1)NC(=O)[C@@H](NC(=O)[C@H](CC(=O)O)NC(=O)[C@@H](NC(=O)[C@@H](N)CC(C)C)C(C)C)[C@@H](C)CC)[C@@H](C)O)C(C)C)[C@@H](C)O)[C@@H](C)O)[C@@H](C)CC)C(=O)N[C@@H](CO)C(=O)O` [OrR214] (H-LVDIYTHVYNCTSSEKHTHCYEIRKSIS-OH), the bacteriostatic diameter in the series with C. fangii [1] came out at 1.1 ±0.033 cm; in the series with C. michiganensis [2], 1.2 ±0.033 cm; in the series with X. oryzae pv. oryzae [3], 1.3 ±0.058 cm; with R. solanacearum [4] it was 1.3 ±0.050 cm. In the series on X. oryzae pv. oryzae [5], the “PI staining rate (PI uptake)” value was about 37.1%. For the same compound, the “time-kill, bacterial growth after peptide treatment” value with X. oryzae pv. oryzae [6] is recorded as “hardly grew after 12 h of treatment”. The “antimicrobial activity after heating (thermal stability)” value in series [7] was “significant activity”. For the same compound, the “antimicrobial activity at 150 mM Na+” value in the series with C. fangii [8] (NaCl 150 mM) and in the series with X. oryzae pv. oryzae [9] (NaCl 150 mM) was “slightly affected” each time. Further, the “antibacterial activity at 50–100 mM Na+” value with C. fangii [8] (NaCl 50, 100 mM) is “significant bacteriostatic effect”; in the series on X. oryzae pv. oryzae [9] (NaCl 50, 100 mM) it was “significant bacteriostatic effect”. The “mycelium growth of Magnaporthe oryzae” value in the series with Magnaporthe oryzae is on record as “significantly inhibit the mycelium growth”. For the same compound, the “necrotic leaf lesion growth on detached rice leaves” value in the series with X. oryzae pv. oryzae [10] (X. oryzae pv. oryzae mixed with peptide, leaf clipping, 28 °C, 7 d) is “decreased necrotic leaf lesion growth”. In addition, the “incidence of rice leaves” value in the series with X. oryzae pv. oryzae [10] (X. oryzae pv. oryzae, 7 d post-inoculation, lesion length) is “decreased significantly”. Also, in the series with X. oryzae pv. oryzae [11], the “ROS production, DCFH-DA fluorescence intensity” value is reported as “significantly increased”. Further, the “cell morphology by SEM and TEM” value in the series with X. oryzae pv. oryzae [12] is reported as “severe damage to the cell membrane surface”. For the same compound, the MIC against C. fangii [13] (24 h) is on record as 10.7 µM (≈ 35.6 µg/mL); against C. michiganensis [14] (24 h), 10.5 µM (≈ 34.9 µg/mL); in the series on B. subtilis (168) (168, 24 h), 8.3 µM (≈ 27.6 µg/mL).

Turning to `CSCC[C@H](NC(=O)[C@@H](NC(=O)[C@@H](NC(=O)[C@H](CC(N)=O)NC(=O)[C@H](CC(N)=O)NC(=O)[C@H](CC(C)C)NC(=O)[C@H](CCCNC(=N)N)NC(=O)[C@H](CC(C)C)NC(=O)[C@@H](NC(=O)[C@H](CO)NC(=O)[C@H](CO)NC(=O)[C@@H](NC(=O)[C@@H]1CCCN1C(=O)[C@@H](NC(=O)CNC(=O)[C@@H](N)CC(C)C)C(C)C)C(C)C)[C@@H](C)O)[C@@H](C)O)[C@@H](C)O)C(=O)N[C@@H](CC(N)=O)C(=O)N1CCC[C@H]1C(=O)N[C@@H](CS)C(=O)N[C@@H](CC(C)C)C(=O)N1CCC[C@H]1C(=O)N[C@@H](CO)C(=O)O` [OrR935] (H-LGVPVSSTLRLNNTTMNPCLPS-OH), the MIC against C. fangii [13] (24 h) amounted to 37.7 µM (≈ 87.3 µg/mL); in the series with C. michiganensis [14] (24 h) it was 34.6 µM (≈ 80.1 µg/mL); against X. oryzae pv. oryzae [15], 44.0 µM (≈ 102 µg/mL); in the series with R. solanacearum [16] it was 33 µM (≈ 76.4 µg/mL); in the series on X. oryzae pv. oryzicola, 31.4 µM (≈ 72.7 µg/mL); in the series with B. subtilis (168) (168, 24 h) it was 36.1 µM (≈ 83.6 µg/mL). In series [17], the “MIC (range over six bacteria)” value fell in the range of 31.4 to 44.0 µM.

Consider “LSFCSCIRTNLDGFDQKLQWNPHFY [OrR1135, candidate antimicrobial peptide from the O. rufipogon cDNA library, 25 amino acids]”, for which the bacteriostatic diameter with C. fangii [1] stood at 1.1 ±0.060 cm; in the series on C. michiganensis [2] it was 1.2 ±0.033 cm; with X. oryzae pv. oryzae [3] it was 1.2 ±0.11 cm; in the series with R. solanacearum [4], 1.4 ±0.050 cm.

Turning to Polymyxin B [reference compound], the MIC in the series with C. fangii [13] is recorded as 25.0 µM; with C. michiganensis [14], 12.5 µM; against X. oryzae pv. oryzae [15] it was 5.0 µM; with R. solanacearum [16] it was 7.5 µM; in the series with X. oryzae pv. oryzicola, 10.0 µM; against B. subtilis (168) (B. subtilis (168) (Gram-positive), purified peptide, LB medium, 28 °C, 24 h), 15.0 µM. Also, in series [17], the “MIC (range over six bacteria)” value was 5 to 25 µM and 5.0 to 25.0 µM.
